In patent publication US9867826B2, “Heterocycles as modulators of kinase activity” (Merck Patent GmbH, priority 2013, dated 2018) one finds IC50 data, which are given here for 27 compounds.

Where only a bound is given, the exact number is not on record here.

The target in one experiment is His-AKT (Full Length) (Homo sapiens (Human), UniProt P31749). Description: AKT enzyme assay. The format is biochemical. Conditions: 160 uM ATP. Here is the method: A TTP Mosquito liquid handling instrument was used to place 125 nl of the appropriate concentration of inhibitor in 100% DMSO (for a dose response curve calculation) into each well of a 384-well plate. To this reaction components were added to a final volume of 12.5 μl: • 0.1 ng/μl His-AKT (Full Length), (Invitrogen, Part # P2999, Lot #641228C). • 160 uM ATP (Fluka, 02055) • 1 mM DTT (Sigma, D0632) • 1 mM MgCl2 (Sigma, M1028) • 1 μM substrate peptide (sequence FITC-AHA-GRPRTSSFAEG-NH2), synthesized by Tufts Peptide Synthesis service. • 100 mM HEPES pH 7.5 (Calbiochem, 391338) • 0.015% Brij-35 (Sigma, B4184)
The reaction was incubated for 90 min at 25 C., and then stopped by the addition of 70 μl of Stop buffer (100 mM HEPES pH 7.5, 0.015% Brij-35, 10 mM EDTA (Sigma, E7889)).
The plate was read on a Caliper LC 3000 in an Off-Chip mobility shift assay format, using the following parameters for a 12-sipper chip: screening pressure −2.3 psi, upstream voltage −500, and downstream voltage −3000. These conditions caused unphosphorylated substrate and phosphorylated product peptide to resolve as separate peaks allowing direct measurement of percentage of conversion of substrate to product.
The percent conversion was plotted against concentration of inhibitor to produce a sigmoidal dose response curve, from which an IC50 was calculated.

The target in another experiment is P70S6K (T412E mutant) (Homo sapiens (Human), UniProt P23443, T412E). Description: P70S6K enzyme assay. The format is biochemical. Conditions: 24 μM ATP. How it is done:
P70S6K inhibitor compounds were diluted and plated in 96 well plates. A reaction mixture including the following components was then added to the compound plate to initiate the enzyme reaction; P70S6K (3 nM, T412E mutant, Millipore) was mixed with 24 μM ATP in an assay buffer containing 100 mM Hepes (pH 7.5), 5 mM MgCl2, 1 mM DTT, 0.015% Brij and 1 μM of the substrate peptide FITC-AHA-AKRRRLSSLRA-OH (derived from the S6 ribosomal protein sequence, FITC=fluorescein isothiocyanate, AHA=6-aminohexanoic acid). The reaction was incubated for 90 min at 25° C., before the addition of 10 mM EDTA to stop the reaction. The proportion of substrate and product (phosphorylated) peptide was analysed on a Caliper Life Sciences Lab Chip 3000, using a pressure of −1.4 psi, and upstream and downstream voltages of −3000 and −700 respectively. Product peaks were resolved before substrate peaks on the resulting chromatograms.

Chain of P70S6K (T412E mutant) (P23443 whole entry T412E): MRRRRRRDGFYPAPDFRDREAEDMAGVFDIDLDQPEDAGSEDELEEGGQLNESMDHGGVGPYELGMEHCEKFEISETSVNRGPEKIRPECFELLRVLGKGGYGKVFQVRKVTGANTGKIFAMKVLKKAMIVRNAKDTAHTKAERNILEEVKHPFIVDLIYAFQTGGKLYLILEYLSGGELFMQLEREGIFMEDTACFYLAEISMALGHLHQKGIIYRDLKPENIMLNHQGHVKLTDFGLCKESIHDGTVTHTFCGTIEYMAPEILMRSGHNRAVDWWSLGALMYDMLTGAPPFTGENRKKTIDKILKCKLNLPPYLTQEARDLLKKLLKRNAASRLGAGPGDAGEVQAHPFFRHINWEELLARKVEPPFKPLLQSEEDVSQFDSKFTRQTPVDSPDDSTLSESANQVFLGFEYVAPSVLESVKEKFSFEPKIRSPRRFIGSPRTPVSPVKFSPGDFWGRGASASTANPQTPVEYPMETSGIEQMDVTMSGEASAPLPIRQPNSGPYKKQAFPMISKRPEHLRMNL
Chain of His-AKT (Full Length) (P31749 whole entry): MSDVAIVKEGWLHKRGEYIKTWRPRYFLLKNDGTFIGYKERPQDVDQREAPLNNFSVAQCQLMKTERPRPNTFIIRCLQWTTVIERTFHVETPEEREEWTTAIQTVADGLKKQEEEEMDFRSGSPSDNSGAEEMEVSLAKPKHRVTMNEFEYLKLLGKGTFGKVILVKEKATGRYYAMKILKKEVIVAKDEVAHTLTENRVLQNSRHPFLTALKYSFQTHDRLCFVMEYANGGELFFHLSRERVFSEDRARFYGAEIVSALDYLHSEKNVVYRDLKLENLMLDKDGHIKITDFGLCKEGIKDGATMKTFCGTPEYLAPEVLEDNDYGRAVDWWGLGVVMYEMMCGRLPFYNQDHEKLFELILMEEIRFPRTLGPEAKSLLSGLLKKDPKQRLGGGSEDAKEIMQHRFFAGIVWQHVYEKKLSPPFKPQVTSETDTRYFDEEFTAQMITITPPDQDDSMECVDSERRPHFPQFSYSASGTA

As a reminder, the IC50 is the concentration at which inhibition is half-maximal. Turning to `Cc1cc(-c2cn(CCNC(C)C)c([C@@H]3CCN(c4ncnc(N)c4C(C)C)C[C@@H]3F)n2)ccc1F` (racemic) [Compound 37, 6-{cis-3-Fluoro-4-[4-(4-fluoro-3-methyl-phenyl)-1-(2-isopropylamino-ethyl)-1H-imidazol-2-yl]-piperidin-1-yl}-5-isopropyl-pyrimidin-4-ylamine], the 50% inhibitory concentration (IC50) against His-AKT (Full Length) and at P70S6K (T412E mutant) was 1 to 10 nM in each case.
As to `CNCCn1cc(-c2ccc(F)c(C)c2)nc1[C@@H]1CCN(c2ncnc(N)c2C(C)C)C[C@@H]1F` (racemic) [Compound 38, 6-{cis-3-Fluoro-4-[4-(4-fluoro-3-methyl-phenyl)-1-(2-methylamino-ethyl)-1H-imidazol-2-yl]-piperidin-1-yl}-5-isopropyl-pyrimidin-4-ylamine], the IC50 at His-AKT (Full Length) and against P70S6K (T412E mutant) was 1 to 10 nM each time.
`Cc1cc(-c2cn(CCN3CCC3)c([C@@H]3CCN(c4ncnc(N)c4OC(C)C)C[C@@H]3F)n2)ccc1F` (racemic) [Compound 39, 6-{cis-4-[1-(2-Azetidin-1-yl-ethyl)-4-(4-fluoro-3-methyl-phenyl)-1H-imidazol-2-yl]-3-fluoro-piperidin-1-yl}-5-isopropoxy-pyrimidin-4-ylamine]: the IC50 against His-AKT (Full Length) and on P70S6K (T412E mutant) was 1 to 10 nM each time.
Consider `Cc1cc(-c2cn(CC3CNC3)c([C@@H]3CCN(c4ncnc(N)c4C(C)C)C[C@@H]3F)n2)ccc1F` (racemic) [Compound 41, 6-{cis-4-[1-Azetidin-3-ylmethyl-4-(4-fluoro-3-methyl-phenyl)-1H-imidazol-2-yl]-3-fluoro-piperidin-1-yl}-5-isopropyl-pyrimidin-4-ylamine], for which the IC50 at His-AKT (Full Length) and on P70S6K (T412E mutant) was 1 to 10 nM in each case.
Take `N#Cc1c[nH]c2ncnc(N3CC[C@@H](c4nc(-c5ccc(F)c(C(F)(F)F)c5)cn4CCN4CCC4)[C@@H](F)C3)c12` (racemic) [Compound 42]: the IC50 at His-AKT (Full Length) and at P70S6K (T412E mutant) was 1 to 10 nM each time.
As to `N#Cc1c[nH]c2ncnc(N3CC[C@@H](c4nc(-c5ccnc(C(F)(F)F)c5)cn4CCN4CCC4)[C@@H](F)C3)c12` (racemic) [Compound 43], the IC50 on His-AKT (Full Length) and on P70S6K (T412E mutant) was 1 to 10 nM throughout.
On to `Cc1cc(-c2cn(CCN3CCC3)c([C@@H]3CCN(c4ncnc(N)c4C(N)=O)C[C@@H]3F)n2)ccc1F` (relative stereo) [Compound 19, 4-Amino-6-{cis-4-[1-(2-azetidin-1-yl-ethyl)-4-(4-fluoro-3-methyl-phenyl)-1H-imidazol-2-yl]-3-fluoro-piperidin-1-yl}-pyrimidine-5-carboxylic acid amide], for which the concentration for half-maximal inhibition (IC50) on His-AKT (Full Length) and against P70S6K (T412E mutant) was 1 to 10 nM in each case.
`NC(=O)c1c(N)ncnc1N1CC[C@@H](c2nc(-c3ccc(F)c(C(F)(F)F)c3)cn2CCN2CCC2)[C@@H](F)C1` (single isomer, unassigned) [Compound 3]: the IC50 against His-AKT (Full Length) and at P70S6K (T412E mutant) was 1 to 10 nM throughout.
`NC(=O)c1c(N)ncnc1N1CC[C@H](c2nc(-c3ccc(F)c(C(F)(F)F)c3)cn2CCN2CCC2)[C@H](F)C1` (single isomer, unassigned) [Compound 4]: the IC50 against His-AKT (Full Length) was greater than 10 nM; against P70S6K (T412E mutant), 1 to 10 nM.
Consider `CN(C)CCn1cc(-c2ccc(F)c(C(F)(F)F)c2)nc1[C@H]1CCN(c2ncnc(N)c2C(N)=O)C[C@H]1F` (single isomer, unassigned) [Compound 20], for which the IC50 on His-AKT (Full Length) and against P70S6K (T412E mutant) was 1 to 10 nM each time.
Turning to `CN(C)CCn1cc(-c2ccc(F)c(C(F)(F)F)c2)nc1[C@@H]1CCN(c2ncnc(N)c2C(N)=O)C[C@@H]1F` (single isomer, unassigned) [Compound 21], the IC50 is greater than 10 nM against His-AKT (Full Length) and 1 to 10 nM at P70S6K (T412E mutant).
In the same order, the values of `CCOc1c(N)ncnc1N1CC[C@@H](c2nc(-c3ccc(F)c(C(F)(F)F)c3)cn2CCN2CCC2)[C@@H](F)C1` (single isomer, unassigned) [Compound 22] are 1 to 10 nM and 1 to 10 nM.
As to `CCOc1c(N)ncnc1N1CC[C@H](c2nc(-c3ccc(F)c(C(F)(F)F)c3)cn2CCN2CCC2)[C@H](F)C1` (single isomer, unassigned) [Compound 23], the IC50 against His-AKT (Full Length) and at P70S6K (T412E mutant) was 1 to 10 nM in each case.
Regarding `Cc1cc(-c2cn(CCN3CCC3)c([C@@H]3CCN(c4ncnc(N)c4C(N)=O)C[C@@H]3F)n2)ccc1F` (single isomer, unassigned) [Compound 27], the concentration for half-maximal inhibition (IC50) at His-AKT (Full Length) and against P70S6K (T412E mutant) was 1 to 10 nM in each case.
As to `Cc1cc(-c2cn(CCN3CCC3)c([C@H]3CCN(c4ncnc(N)c4C(N)=O)C[C@H]3F)n2)ccc1F` (single isomer, unassigned) [Compound 28], the IC50 on His-AKT (Full Length) and at P70S6K (T412E mutant) was greater than 10 nM each time.
`CN(C)CCn1cc(-c2ccc(F)c(C(F)(F)F)c2)nc1[C@@H]1CCN(c2ncnc(N)c2Cl)C[C@@H]1F` (single isomer, unassigned) [Compound 29]: the IC50 at His-AKT (Full Length) and at P70S6K (T412E mutant) was 1 to 10 nM in each case.
As for `CN(C)CCn1cc(-c2ccc(F)c(C(F)(F)F)c2)nc1[C@H]1CCN(c2ncnc(N)c2Cl)C[C@H]1F` (single isomer, unassigned) [Compound 30], the values for the IC50 on His-AKT (Full Length) and at P70S6K (T412E mutant) were greater than 10 nM and 1 to 10 nM, respectively.
With `CC(C)c1c(N)ncnc1N1CC[C@H](c2nc(-c3ccc(F)c(C(F)(F)F)c3)cn2CCN(C)C)[C@H](F)C1` (single isomer, unassigned) [Compound 31], the IC50 is greater than 10 nM against His-AKT (Full Length) and 1 to 10 nM on P70S6K (T412E mutant).
The corresponding values for `CC(C)c1c(N)ncnc1N1CC[C@@H](c2nc(-c3ccc(F)c(C(F)(F)F)c3)cn2CCN(C)C)[C@@H](F)C1` (single isomer, unassigned) [Compound 32] are 1 to 10 nM and 1 to 10 nM.
For `Cc1cc(-c2cn(CCN3CCC3)c([C@H]3CCN(c4ncnc(N)c4C(C)C)C[C@H]3F)n2)ccc1F` (single isomer, unassigned) [Compound 34], the IC50 against His-AKT (Full Length) is greater than 10 nM; on P70S6K (T412E mutant), 1 to 10 nM.
Turning to `Cc1cc(-c2cn(CCN3CCC3)c([C@@H]3CCN(c4ncnc(N)c4C(C)C)C[C@@H]3F)n2)ccc1F` (single isomer, unassigned) [Compound 35], the IC50 against His-AKT (Full Length) and on P70S6K (T412E mutant) was 1 to 10 nM in each case.
Regarding `N#Cc1c(N)ncnc1N1CC[C@@H](c2nc(-c3ccc(F)c(C(F)(F)F)c3)cn2CCN2CCC2)[C@@H](F)C1` (single isomer, unassigned) [Compound 40], the IC50 at His-AKT (Full Length) and against P70S6K (T412E mutant) was 1 to 10 nM throughout.
As for `Cc1cc(-c2cn(CCN3CCC3)c(C3(O)CCN(c4ncnc(N)c4C#N)CC3)n2)ccc1F` [Compound 44, 4-Amino-6-{4-[1-(2-azetidin-1-yl-ethyl)-4-(4-fluoro-3-methyl-phenyl)-1H-imidazol-2-yl]-4-hydroxy-piperidin-1-yl}-pyrimidine-5-carbonitrile], the IC50 at His-AKT (Full Length) and on P70S6K (T412E mutant) was 1 to 10 nM throughout.
Turning to `Cc1cc(-c2cn(CCN3CCC3)c(C3(O)CCN(c4ncnc(N)c4C(C)C)CC3)n2)ccc1F` [Compound 45, 1-(6-Amino-5-isopropyl-pyrimidin-4-yl)-4-[1-(2-azetidin-1-yl-ethyl)-4-(4-fluoro-3-methyl-phenyl)-1H-imidazol-2-yl]-piperidin-4-ol], the IC50 against His-AKT (Full Length) and against P70S6K (T412E mutant) was 1 to 10 nM throughout.
`CCc1c(N)ncnc1N1CCC(O)(c2nc(-c3ccc(F)c(C)c3)cn2CCN2CCC2)CC1` [Compound 46, 1-(6-Amino-5-ethyl-pyrimidin-4-yl)-4-[1-(2-azetidin-1-yl-ethyl)-4-(4-fluoro-3-methyl-phenyl)-1H-imidazol-2-yl]-piperidin-4-ol]: the IC50 against His-AKT (Full Length) and at P70S6K (T412E mutant) was 1 to 10 nM throughout.
For the compound `Cc1cc(-c2cn(CCN3CCC3)c(C3(O)CCN(c4ncnc(N)c4Cl)CC3)n2)ccc1F` [Compound 47, 1-(6-Amino-5-chloro-pyrimidin-4-yl)-4-[1-(2-azetidin-1-yl-ethyl)-4-(4-fluoro-3-methyl-phenyl)-1H-imidazol-2-yl]-piperidin-4-ol], the half-inhibitory concentration (IC50) on His-AKT (Full Length) and against P70S6K (T412E mutant) was 1 to 10 nM each time.
In the case of `Cc1cc(-c2cn(CCN3CCC3)c(C3CCN(c4ncnc(N)c4C#N)CC3(F)F)n2)ccc1F` (stereo not drawn) [Compound 48, 4-Amino-6-{4-{1-(2-azetidin-1-yl-ethyl)-4-(4-fluoro-3-methyl-phenyl)-1H-imidazol-2-yl}-3,3-difluoro-piperidin-1-yl}-pyrimidine-5-carbonitrile], the 50% inhibitory concentration (IC50) at His-AKT (Full Length) and against P70S6K (T412E mutant) was 1 to 10 nM in each case.
